# From ChEMBL document CHEMBL3244224, “Synthesis and central nervous system activity of 2-arylidene-4-aminoalkyl-2H-1,4-benzoxazin-3(4H)-ones and related compounds” (J Med Chem, 1977)
# Activity calls are given as the source filed them. The rule behind the calls is not given here.
# Experiments:
# [1] = test system: Rattus norvegicus; assay: Central nervous system activity in ip dosed rat assessed as dose required to cause decreased reflex action by measuring decreased grip strength; type: functional
# [2] = (§1) Antagonist activity at dopamine receptor in Sprague-Dawley rat olfactory tubercles assessed as inhibition of adenylate cyclase activity after 5 mins; type: tissue-based, Olfactory tubercle; details: read-out: I50
# [3] = (§2) Antagonist activity at dopamine receptor in Sprague-Dawley rat olfactory tubercles assessed as inhibition of dopamine-induced adenylate cyclase activity after 5 mins; type: tissue-based, Olfactory tubercle; details: read-out: I50
# [4] = test system: Rattus norvegicus; assay: Central nervous system activity in ip dosed rat assessed as dose required to cause depression by measuring decreased motor activity; type: functional
# [5] = species on record: Rattus norvegicus; assay: Antagonist activity at dopamine receptor in Sprague-Dawley rat olfactory tubercles assessed as inhibition of adenylate cyclase activity at 100 uM after 5 mins; type: tissue-based; details: Olfactory tubercle
# [6] = species on record: Rattus norvegicus; assay: as §1; type: tissue-based; details: Olfactory tubercle
# [7] = species on record: Rattus norvegicus; assay: as §2; type: tissue-based; details: Olfactory tubercle
# [8] = species on record: Rattus norvegicus; assay: Antagonist activity at dopamine receptor in Sprague-Dawley rat olfactory tubercles assessed as inhibition of dopamine-induced adenylate cyclase activity at 100 uM after 5 mins; type: tissue-based; details: Olfactory tubercle
# [9] = species on record: Rattus norvegicus; assay: Antagonist activity at dopamine receptor in Sprague-Dawley rat olfactory tubercles assessed as inhibition of adenylate cyclase activity at 10 uM after 5 mins; type: tissue-based; details: Olfactory tubercle
SMILES,ED [1] [mg/kg],IC50 [2] [µM],IC50 [3] [µM],ED [4] [mg/kg],inhibition [5] [%],I50 [6],I50 [7],inhibition [8] [%],inhibition [9] [%]
CCN(CC)CCCN1C(=O)/C(=C/c2ccccc2)Oc2ccccc21.Cl,12.5,> 100,60,50,,,,,
CN(C)CCN1C(=O)/C(=C/c2ccccc2)Oc2ccccc21.Cl,50,> 100,100,50,,,,,
CN(C)CCCN1C(=O)C(Cc2ccccc2)Oc2ccc(Cl)cc21.Cl (stereo not given),100,,,>200,,,,,
CCCC(C)(COC(N)=O)COC(N)=O [MEPROBAMATE],25,,,50,,,,,
Cl.O=C1/C(=C/c2ccccc2)Oc2ccccc2N1CCCN1CCN(c2ccccc2)CC1,100,,,100,< 10,inactive,inactive,< 10,
Cl.O=C1/C(=C/c2ccccc2)Oc2ccccc2N1CCCN1CCN(CO)CC1,100,> 400,54,100,,,,,
CN(C)CCCN1C(=O)/C(=C/c2ccc(Cl)cc2)Oc2ccccc21.Cl,100,450,30,100,,,,,
CN(C)CCCN1C(=O)/C(=C/c2cccs2)Oc2ccccc21.Cl,100,> 200,56,100,,,,,
CN1CCN(CCCN2C(=O)/C(=C/c3ccccc3)Oc3ccccc32)CC1.Cl,12.5,450,35,50,,,,,
CN(C)CCCN1C(=O)C(Cc2ccccc2)Oc2ccccc21.Cl (stereo not given),50,,,100,,,,,
CN(C)CCCN1C(=O)/C(=C/c2ccccc2)Oc2ccccc21.Cl,25,600,33,25,,,,,
O=C1Nc2ccccc2O/C1=C\c1ccccc1,>200,,,>200,< 10,inactive,inactive,< 10,
CN(C)CCCN1C(=O)/C(=C/c2ccccc2)Oc2ccc(Cl)cc21.Cl,200,> 100,100,>200,,,,,
Cl.O=C1/C(=C/c2ccccc2)Oc2ccccc2N1CCN1CCOCC1,>200,,,>200,< 10,inactive,inactive,< 10,
CN1CCN(CCCN2C(=O)/C(=C/c3ccccc3)Oc3ccc(Cl)cc32)CC1,>200,> 500,> 500,>200,,,,,
Cc1ccc2c(c1)N(CCCN(C)C)C(=O)/C(=C/c1ccccc1)O2.O=C(O)CCC(=O)O,100,450,15,100,,,,,
CN(C)CCCN1C(=O)/C(=C/c2ccccc2Cl)Oc2ccccc21.Cl,100,170,30,>200,,,,,
OCCN1CCN(CCCN2c3ccccc3Sc3ccc(C(F)(F)F)cc32)CC1 [FLUPHENAZINE],,,0.5,,,inactive,,,< 10
CN(C)CCN1C(=O)C(Cc2ccccc2)Oc2ccccc21.Cl (stereo not given),200,,,>200,,,,,
COc1ccc2c(c1)N(CCCN(C)C)C(=O)/C(=C/c1ccccc1)O2.Cl,>200,> 100,60,>200,,,,,
CN1CCN(CCCN2C(=O)C(Cc3ccccc3)Oc3ccccc32)CC1.Cl (stereo not given),50,,,>200,,,,,
CN1CCN(C2=Nc3cc(Cl)ccc3Nc3ccccc32)CC1 [CLOZAPINE],,,6,,< 10,inactive,,,
C[N+](C)(C)CCCN1C(=O)/C(=C/c2ccccc2)Oc2ccccc21.[Cl-],50,1000,650,50,,,,,
CN(C)CCCCN1C(=O)/C(=C/c2ccccc2)Oc2ccccc21.Cl,50,> 200,80,>200,,,,,
